Data: a melting point compilation (Tetko et al.; mined from patent text by program, amines drawn as free bases though some values may be those of a salt)

Row | Compound | melting point
1 | CNC(=O)ON=C(C)SC(C)C(N)=O (centres undefined) | 161 to 163 °C
2 | CCCN(c1ccncc1)n1cc(C)c2cc(OCc3ccccc3)ccc21 | 165 to 167 °C
3 | Cc1cn(C2CC(ON)C(CO)O2)c(=O)[nH]c1=O (centres undefined) | 81 °C
4 | CCOC(=O)CC(NC(=O)c1cc(N)ccc1OCCOC)c1ccccc1 (racemic) | 105 to 106 °C
5 | N#Cc1ccc(OCc2ccc3c(c2)OCO3)cc1OC(C(=O)O)c1ccccc1 (racemic) | 68 to 70 °C
6 | CC(=O)SCCCC1(C)C(=O)N2CCCC(C(=O)O)N2C1=O (centres undefined) | 160 to 161 °C
7 | N#CC(C(=O)c1ccc(Cl)cc1)c1ccncc1 (centres undefined) | 225 to 235 °C
8 | COC(=O)[C@H](c1ccccc1Cl)N1CCc2sc(OC(C)=O)cc2C1 | 73 to 75 °C
9 | CCCCC1(O)C(C)=CC(=O)CC1(C)C (centres undefined) | 90 to 93 °C
10 | O=C(O)c1c(Cl)cc(Cl)c(Cl)c1C(=O)O | 150 to 153 °C
11 | CC1N=C(c2ccccc2F)c2cc(Br)ccc2NC1=O (centres undefined) | 183 to 185 °C
12 | CCOC(=O)c1cnc2c(NC(=O)c3c(Cl)cccc3Cl)cccc2c1CBr | 199 °C
13 | CC(C)(C)OC(=O)NCCC(=O)N[C@@H](CC(=O)OCc1ccccc1)C(=O)NCCc1ccc(OCC(=O)OCc2ccccc2)cc1 | 123 to 124 °C
14 | C[C@@H](C(=O)OCCCCNc1cccc2c1C(=O)c1ccccc1C2=O)N(C)C(=O)OC(C)(C)C | 62 °C
15 | CC(C)(C)OC(=O)Nc1ccc(-c2ccc(OC(F)(F)F)cc2)cc1[N+](=O)[O-] | 145 to 147 °C
16 | CC1(C)N=C(SCc2cccc3cccnc23)N=C1SCc1cccc2cccnc12 | 101 to 104 °C
17 | Cc1nc2cnccc2n1-c1ccc(OCc2cccc(C(=O)Nc3nc4cc(F)ccc4s3)c2)cc1 | 244 to 246 °C
18 | CCOC(=O)CNc1ccc2c3c(n(CCCNC(=O)OC(C)(C)C)c(=O)c2c1)-c1ccccc1C3=O | 203 to 204 °C
19 | O=C(N=c1sc2cc(OC(F)(F)F)ccc2n1CCCO)C(F)(F)F | 144 °C
20 | COc1ccc(-n2nnnc2C)cc1C=O | 132 to 134 °C

Row | Compound | melting point
21 | CCn1cc(C(=O)O)c(=O)c2cc([N+](=O)[O-])c(-c3cc(C)nc(C)c3)cc21 | 289 to 291 °C
22 | CCOCc1cc(OC)c(-c2ccc(C[C@H](NC(=O)c3c(F)cccc3Cl)C(=O)O)cc2)c(OC)c1 | 182 to 184 °C
23 | N#CCCNC(=O)c1cccc(-c2cccc3nn(Cc4ccccc4F)cc23)c1 | 165 to 166 °C
24 | C=CCn1cccc1C(N)=S | 80.5 to 83 °C
25 | CCNc1nc(=O)n(Cc2ccc(OC)c(OC3CCCC3)c2)c2nc(C(C)C)[nH]c12 | 110 to 115 °C
26 | CC(C)(C(=O)c1ccc(Cl)cc1)n1ncn(-c2ccc(N3CCN(Cc4ccccc4)CC3)cc2)c1=O | 150 °C
27 | Cc1nc(C)c(-c2cncc(OC3SCC(O)C(O)C3O)c2)s1 (centres undefined) | 150 °C
28 | NNc1ccc([N+](=O)[O-])cc1S(N)(=O)=O | 209 to 210 °C
29 | COc1ccc(C(=O)Nc2ccccc2)cc1NS(=O)(=O)c1cccc(C#N)c1 | 195 to 197 °C
30 | CN1CCN(c2cccc(Nc3ccc(-c4ccoc4)cc3N)c2)CC1 | 129 to 130 °C
31 | CC(C)(C)Sc1c(CC(C)(C)C(=O)O)n(Cc2ccc(Cl)cc2)c2c(OCc3ccc4ccccc4n3)cccc12 | 206 °C
32 | CCCc1c2c(cc3c1OC(O)(C(=O)OCC)CC3=O)CCCC2 (centres undefined) | 126 to 128 °C
33 | CCc1nc2c(C)cc(C)nc2n1Cc1ccc(C(c2ccccc2)C(CC)C(=O)O)cc1 (centres undefined) | 227 to 229 °C
34 | CN1CC(CCCl)c2nc3ccccc3n2C1=O (centres undefined) | 88 to 91 °C
35 | OCC1C(O)C(O)C(O)CN1C=CCc1cccc(OCCOc2cccc(CC=CN3CC(O)C(O)C(O)C3CO)c2)c1 (centres undefined) | 210 to 213 °C
36 | COC1CCC2C3CCC4CC(Cl)CCC4(C)C3CCC12C (centres undefined) | 151 to 154 °C
37 | Oc1ccc(C2=CCCCC2)cc1 | 115 to 119 °C
38 | CC1(C)Oc2cc(Br)c(Br)cc2O1 | 93 to 94 °C
39 | CC(C)(C)OC(=O)[C@H](Cc1ccc(O)cc1)NC(=O)c1c(Cl)cccc1Cl | 177 to 178 °C
40 | Cc1c(C(=O)Nc2cc(Cl)c(N3CCC(N4CCOCC4)CC3)c(Cl)c2)cnn1-c1ccc(C(F)(F)F)cc1 | 252 to 254 °C

Row | Compound | melting point
41 | O=c1[nH]c2cc(Cl)ccc2c(O)c1-c1ccc(Br)cc1 | > 350 °C
42 | NC(=O)CCCCCc1ccc(Cl)cc1 | 87 to 89 °C
43 | C=CCNC(=O)[C@H]1NCSC1(C)C | 45 to 47 °C
44 | Cc1c(-c2ccccc2)oc2c(C(=O)N(C)CCO)cccc2c1=O | 128 to 130 °C
45 | CC(C)(C)OC(=O)NCc1nc2c(C(F)(F)F)cccc2c(=O)o1 | 176 °C
46 | OCCON=Cc1ccc(-c2ccccc2)cc1 | 116 to 118 °C
47 | O=C1O[C@H](Cc2ccon2)CN1c1ccc(N2CCC3(CC2)OCCO3)c(F)c1 | 120 to 122 °C
48 | CS(=O)c1csc(NC(=O)c2ccccc2O)n1 (centres undefined) | 240 °C
49 | CN(C)c1ccc2nc(N)c(C#N)c(Cl)c2c1 | 285 °C
50 | OCC1OC(n2c(Cl)nc3c(Br)c(Br)c(Br)cc32)C(O)C1O (centres undefined) | 168 to 170 °C
51 | CN1C(=O)c2c(c3ccc(Cl)cc3n2CCN2CCCCC2)Oc2ccccc21 | 160 to 162 °C
52 | CC(C)NC1=NS(=O)(=O)c2cc(Br)cc(Br)c2N1 | 306 to 311 °C
53 | Cc1cc(C)nc(NC(=O)NS(=O)(=O)c2ccccc2S(=O)(=O)N(C)OCc2ccccc2)n1 | 186 to 192 °C
54 | CCCc1cc(Cl)c2oc(Cc3ccc(OC)cc3)c(C)c2c1OC(C)=O | 119 to 120 °C
55 | Cc1cc2c(cc1N1CCc3ccccc31)OC(=O)C2C (centres undefined) | 176 to 178 °C
56 | O=C(O)c1cc(S(=O)(=O)N2CCSCC2)ccc1Br | 195 to 198 °C
57 | CC(C)Oc1ccc(CCCO)c(Oc2ncc(C(F)(F)F)cc2Cl)c1 | 72 to 73 °C
58 | CCOC(=O)C(C)Oc1ccc(N(C)c2nc3ccc(Br)cc3o2)cc1 (centres undefined) | 91 to 92 °C

Next, values leading:

Row | melting point | Compound
59 | 137 to 138 °C | CCCC(CCC)NC(=O)c1ccc2oc(OC)nc2c1
60 | 184 to 185 °C | COc1cc(C)c(C=CC(C)=CC=CC(C)=CC(=O)n2ccnc2)c(C)c1C
61 | 148 °C | CS(=O)(=O)c1ccc(-c2cc(F)c(F)cc2-c2ccc(F)cc2)cc1
62 | 198 to 199 °C | Cc1ccc2c(NC(=NC#N)NC(NC(=O)Cc3ccc(Cl)cc3)C(C)(C)C)cccc2n1 (centres undefined)
63 | > 300 °C | Cc1ncc(O)c(=O)[nH]1
64 | 126 to 128 °C | CCCCCCCCCCCCCCCCCCOc1cc(OCCCCC(=O)O)cc(N(CC(=O)O)CC(=O)O)c1
65 | 138 to 139 °C | C=C(C)Cn1c(=O)n(C)c(=O)c2c(SCCCO)n(Cc3cccc4ccccc34)nc21
66 | 211 °C | Cc1cnn(-c2cc(N)c(Cl)cc2Cl)c(=O)c1Br
67 | 138 to 139 °C | CS(=O)(=O)c1ccc(-c2scnc2-c2ccc(F)cc2)cc1
68 | 269 to 272 °C | COc1cc(C(=O)O)ccc1Cn1nc(O)c2ccc(NC(=O)CC3CCCC3)cc21
69 | 115 to 117 °C | COC(=O)COc1ccc(C2C(=O)Oc3c2cc(C(C)(C)C)cc3C(C)(C)C)cc1 (centres undefined)
70 | 214 to 216 °C | CC(C)(C)OC(=O)N1CCn2c(Cl)c(Br)c(C(N)=O)c2C1
71 | 93.8 to 95.7 °C | CCc1nc(OCc2ccc(Oc3ccc(C(F)(F)F)cc3)cc2)c(C)c(=O)n1CC
72 | 245 to 247 °C | CC1CCCCC1C(=O)Nc1ccc(-c2ncc(-c3ccc(NC(=O)c4cccnc4)cc3)[nH]2)cc1 (centres undefined)
73 | 117 °C | O=C(NCCCc1ccccc1)c1ccccc1NCc1ccncc1
74 | 49 to 52 °C | CC1(C)Sc2ccccc2C(Cl)=C1C=O
75 | 181 to 182 °C | O=c1oc(-c2ccccc2)cc(O)c1Sc1cccc(Cl)c1
76 | 197 to 199 °C | Cc1cc2[nH]c(CC(C)(C)N3C(=O)c4ccccc4C3=O)nn2n1
77 | 131 to 133 °C | CCCCCCCCCC(=O)Oc1ccc(N(CC(=O)O)CC(=O)O)cc1OC(=O)CCCCCCCCC
78 | 99 to 102 °C | CCCCCCCCNC(=O)/C=C\SC(=O)c1cc(Cl)cc(Cl)c1
79 | 170 to 171 °C | COc1cc(Nc2nccc(-c3ccc(NCCCCO)nc3)n2)cc(OC)c1OC

Row | melting point | Compound
80 | 113 to 116 °C | COc1ccc(S(=O)(=O)Nc2ccccc2Nc2ccccn2)cc1
81 | 111 to 114 °C | COC(=O)COC(=O)COc1ccc(-c2coc3cc(OCC(=O)OCC(=O)OC)ccc3c2=O)cc1
82 | 134 to 136 °C | CCCNC(C=Cc1ccccc1Cl)=NC#N
83 | 195 to 196 °C | O=C(O)Cc1cnn(-c2ccc(Cl)cc2)c1-c1ccc(Cl)cc1
84 | 155 to 157 °C | O=C1c2ccccc2C(=O)N1Cc1noc(-c2ncn3c2[C@@H]2CCN2C(=O)c2sccc2-3)n1
85 | 131 to 134 °C | CCN1C(=O)C2C3CCC(CC3)C2(c2ccc(Cl)c(Cl)c2)C1=O (centres undefined)
86 | 189 °C | COc1ccc(S(=O)(=O)N(CCC(N)=O)c2ccc(Cl)cc2Cc2c(F)cccc2F)cc1OC
87 | 299 to 303 °C | CC(=NNc1ccc(-c2n[nH]c(=O)cc2C)cc1)c1ccc(O)cc1O
88 | 50 to 51 °C | CC(C)(C)C(Cl)=NNc1cc(Cl)ccc1Cl
89 | > 250 °C | c1ccc(-c2ccc3[nH]c4c(c3c2)CCNCC4)cc1
90 | 118 to 120 °C | CC(=O)NC(CCc1ccc(C(O)CCCCCc2ccccc2)cc1)(CO[Si](C)(C)C(C)(C)C)CO[Si](C)(C)C(C)(C)C (centres undefined)
91 | 121 to 122 °C | CC1CCC2(C)C(=CCC3C2CCC2(C)C3CCC23OCCO3)C1 (centres undefined)
92 | 142 to 144 °C | O=C(C=Cc1ccc(C(F)(F)F)cc1)N1CCOCC1
93 | 123 to 125 °C | C[C@H](c1ccccc1)N1C(=O)N[C@@H]2C(=O)OC[C@@H]21
94 | 72 °C | CCc1nn(CCO)c(CC)c1Oc1cc(C#N)cc(SC)c1
95 | 227 to 230 °C | CCn1cc(Br)nc(N)c1=O
96 | 106 to 107 °C | CCC(=O)NCCc1c[nH]c2ccc3c(c12)CCCO3
97 | 150 to 152 °C | CCCCc1ccc2c(c1)CC(C(=O)OCC)=NN2
98 | 159 to 161 °C | CCCCOCCOc1ccc(-c2ccc3c(c2)C=C(C(=O)Nc2ccc(S(=O)Cc4nccn4CCCC(=O)NC)cc2)CCN3CC(C)C)cc1 (centres undefined)
99 | 152 to 153 °C | C[C@H](CSC(=O)c1ccc(Cl)c(S(N)(=O)=O)c1)C(=O)O
